Data taken from patent publication US9868707B2, “Small molecule agonists of neurotensin receptor 1” (SANFORD-BURNHAM MEDICAL RESEARCH INSTITUTE, priority 2012, dated 2018).

Tests used:
[1] = Plasma stability, mouse plasma; type: in vitro ADME
Experimental: Plasma stability was determined using previously published methods (Kerns, E. H., and Di, L. 2008. Drug-like Properties: Concepts, Structure Design and Methods. Oxford UK: Elsevier). Compound (1.0 μM) was incubated at 37° C. in human or mouse plasma (from blood of healthy donors collected on EDTA) diluted to 50% (v/v) with pH 7.4 isotonic phosphate buffer. At time 0 min and 180 min, aliquots were collected, added to acetonitrile to quench the reaction and precipitate plasma proteins. These samples were centrifuged and the supernatant analyzed by the LC/MS/MS method described above for the presence of the parental compound.

[2] = Plasma protein binding, Rapid Equilibrium Device, mouse plasma; type: in vitro ADME; details: mouse plasma (EDTA), diluted 1:1 with PBS, read-out: Plasma Protein Binding (% Bound) (converted)
Experimental: The extent of compound bound to plasma proteins was measured using the Rapid Equilibrium Device (Pierce Thermo Scientific, Rockford Ill.). The base plate was rinsed with […] followed by 2× washes with ultrapure water and allowed to dry. Human and mouse plasma (BioChemed Services, Winchester Va.) collected in EDTA was allowed to thaw at room temperature and then warmed to 37° C., and diluted 1:1 (v:v) with 1×PBS, pH 7.4, prior to the assay. The compound (1.0 and 10.0 μM final) was added to the chamber containing 300 μl plasma:PBS. Next, 500 μl of dialysis buffer (1×PBS, pH7.4) was added to the buffer chambers of the inserts. The chambers were covered with sealing tape and incubated at 37° C. on an orbital shaker at 300× rpm for 4 hours. […] Results reported are the mean of each reaction duplicate, normalized to the internal standard, and expressed as a percent compound bound after the incubation time. The amount of compound in the supernatant was determined by LC/MS/MS and the percent of free and bound compounds were calculated with the following formulas: Percent of free parent compound=(amount of compound in receiver chamber/amount of compound in donor chamber)*100.

[3] = biological target: NTR1 (Homo sapiens, UniProt P30989); test: NTR1 high-content imaging (HCS) dose response, NTR1-U2OS cells; type: cell-based; set-up: host or cells: U2OS osteosarcoma; details: n = 4 unless otherwise noted
Source text: The cell lines utilized in the high-content imaging assays, which include the NTR1-, NTR2-, and GPR35-U2OS osteosarcomas, were obtained from the laboratory of Dr. Lawrence Barak at the Duke University Medical Center. The media used in the culture of the cell lines, as well as the assays themselves, consisted of Minimum Essential Medium (15-010-CM) and L-glutamine (25-005-CL) from Cellgro/Mediatech (Manassas, Va.), fetal bovine serum (SH30396.03) from Hyclone (Logan, Utah), penicillin-streptomycin solution (PS-20) from Omega Scientific in Tarzana, Calif., G418 (ant-gn-1) from Invivogen (San Diego, Calif.), and zeocin (R250-01) from Invitrogen (Carlsbad, Calif.). Cell lines were cultured in T225 tissue culture flasks (431082) supplied by Corning (Corning, N.Y.). Additional reagents employed include Dulbecco's Phosphate-Buffered Saline (DPBS) (21-031CV) from Cellgro/Mediatech, Trypsin-EDTA 0.05% (25300) from Invitrogen, paraformaldehyde (30528954) from Acros Organics (Geel, Belgium), Hoechst 33342 (H3570) from Invitrogen. The high-content assays were run in 1536-well plates (29326) supplied by Aurora Biotechnology (Poway, Calif.) and utilized aluminum plate seals (T592100) from E&K Scientific (Santa Clara, Calif.).
The neurotensin 1 peptide (N6383) from Sigma-Aldrich (St. Louis, Mo.) was used as a positive control in the NTR1 primary HCS assay. For the NTR2 selectivity assay, the non-specific, small molecule 3-(4-fluorophenyl)-7,8-dimethoxy-5-(4-methylbenzyl)-5H-pyrazolo[4,3-c]quinolone which was synthesized internally was used as a positive control. The GPR35 selectivity screen utilized zaprinast (ALX430-020-M010) from Alexis Biochemicals (Farmingdale, N.Y.) as a control.
The high-content imaging based NTR1 primary screen in 1536-well format was utilized to assay the MLSMR library of chemical entities in the following manner. On day one, 4 uL of a cell suspension containing 350,000 NTR1-U2OS cells per mL is added to each well of a 1536-well assay plate. Cells are plated in MEM medium containing 2.5% Fetal Bovine Serum, 1% Penicillin/Streptomycin solution, 1% L-Glutamine, 400 ug/mL G418, and 200 ug/mL Zeocin. The assay plates are then incubated overnight at 37° C., under 5% CO2. Following the overnight incubation, a volume of 60 nL of the compounds at 2 mM in DMSO (final 20 μM, 1% DMSO) was transferred to columns 5-48 of the assay plates using a LabCyte Echo Liquid Handler. Next, 60 nL of DMSO were dispensed to columns 1-4, which served as the positive and neutral control wells. […] The assay plates were centrifuged on an Eppendorf 5810 centrifuge at 1000 rpm for 1 min to ensure even liquid levels in the wells of the assay plates. The assay plates were then returned to the incubator for 1 hour. Following the hour-long incubation at 37° C., the cells in each well were fixed with 4 uL of 6% paraformaldehyde added with a Multidrop Combi. The assay plates were centrifuged as before and incubated at room temperature for 1 hour. On the Kalypsys, plates were then aspirated down to 2.5 uL per well and washed twice with 11 uL per well of DPBS, followed by a final aspiration to 2.5 uL per well. On the Combi dispenser, 5 uL of 5 ug/mL Hoechst 33342 diluted in DPBS was added to each well of assay plates. The plates were again centrifuged as previously described, sealed, and incubated for at least 1 hour prior to being loaded on a PerkinElmer Opera QEHS.
Image acquisition was performed with a 45 plate capacity loader/stacker and the following settings: 40×0.6 NA air objective, acquisition camera set to 2-by-2 binning for an image size of 688 by 512 pixels, beta-arrestin-GFP acquired using 488 nm laser excitation and 540/75 nm emission filters, DAPI (nuclei) using 365 nm Xenon lamp excitation and 450/50 nm emission filters, 3 fields per well. Image analysis was performed using the Acapella Spot Detection Algorithm. For analysis settings and the metrics employed in the data analyses, please refer to supplemental information.

[4] = biological target: T1, MOR (Homo sapiens, UniProt P35372); test: Panlabs/Ricerca lead profiling panel, MOR; type: binding; details: @ 10 μM
T1 construct: Panlabs/Ricerca (contract panel)
Source text: However, these activities in in vitro binding assays may not translate into functional modulation of these receptors.

NTR1, sequence (P30989 whole entry, species assumed): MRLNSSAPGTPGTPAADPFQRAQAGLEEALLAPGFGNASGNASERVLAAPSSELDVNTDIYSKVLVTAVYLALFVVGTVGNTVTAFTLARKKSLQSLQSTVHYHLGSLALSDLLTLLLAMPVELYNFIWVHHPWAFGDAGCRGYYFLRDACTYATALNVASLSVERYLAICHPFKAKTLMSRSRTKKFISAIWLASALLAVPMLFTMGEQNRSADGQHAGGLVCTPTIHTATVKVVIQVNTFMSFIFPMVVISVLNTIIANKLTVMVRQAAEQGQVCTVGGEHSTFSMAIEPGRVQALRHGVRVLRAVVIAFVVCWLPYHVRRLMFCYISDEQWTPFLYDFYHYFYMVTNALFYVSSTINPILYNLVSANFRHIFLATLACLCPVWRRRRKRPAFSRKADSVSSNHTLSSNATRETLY
T1 sequence (P35372 whole entry): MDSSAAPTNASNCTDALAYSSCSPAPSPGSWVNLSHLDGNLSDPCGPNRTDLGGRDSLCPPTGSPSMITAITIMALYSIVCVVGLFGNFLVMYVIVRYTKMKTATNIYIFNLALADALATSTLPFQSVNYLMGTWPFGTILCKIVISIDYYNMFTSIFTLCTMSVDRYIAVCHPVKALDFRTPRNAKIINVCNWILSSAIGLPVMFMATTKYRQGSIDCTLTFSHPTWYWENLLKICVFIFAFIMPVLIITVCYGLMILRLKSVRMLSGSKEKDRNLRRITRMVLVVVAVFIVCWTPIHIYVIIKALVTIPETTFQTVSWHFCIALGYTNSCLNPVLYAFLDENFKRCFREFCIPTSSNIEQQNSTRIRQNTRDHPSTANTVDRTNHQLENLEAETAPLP

COc1cc2nc(C3CC3)nc(N3CCN(c4ccccc4OC)CC3)c2cc1OC [Compound 315, 2-cyclopropyl-6,7-dimethoxy-4-(4-(2-methoxyphenyl)piperazin-1-yl)quinazoline]
Plasma Stability (% Remaining at 3 hrs) [1]: 99.55% | fraction unbound at 4 h, 1 μM ([2]; pH 7.4, 1 μM): 0.0033 | fraction unbound at 4 h, 10 μM ([2]; pH 7.4, 10 μM): 0.0116 | EC50 ([3]; Ave. ± S.E.M., read-out: HCS NTR1 Potency EC50): 2000 ± 100 nM | Emax ([3]; read-out: HCS NTR1 Potency Emax): 105% | activity at MOR [4]: 86%
